Holding throughout (format): in vivo
For assay [1], the system named is galium (catchweed bedstraw, Galium aparine). Kind of assay: Test B pre-/postemergence plant response. An outline of the steps: (§1)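 Seeds sown in loam–sand blend were treated preemergence, and plants at 2–18 cm (1- to 4-leaf stage) in peat-based medium were treated postemergence; compounds were formulated in non-phytotoxic solvent with surfactant. After 13–15 days in greenhouse, response was visually rated against controls, 0 (no effect) to 100 (complete control).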

Assay [2] relates to deadnettle (henbit deadnettle, Lamium amplexicaule). The assay is described as follows: Test B pre-/postemergence plant response. The note with it: Postemergence. The method in brief: as §1
Assay [3] deals with sunflower (common oilseed sunflower, Helianthus annuus). The assay is described as follows: Test B pre-/postemergence plant response. The conditions noted are these: Preemergence. An outline of the steps: as §1
Assay [4] deals with nightshade (eastern black nightshade, Solanum ptycanthum). The assay is described as follows: Test B pre-/postemergence plant response. The conditions noted are these: Preemergence. The method in brief: as §1
The test system of assay [5] is prickly sida (Sida spinosa). The assay is described as follows: Test D pre-/postemergence plant response. An outline of the steps: (§2)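 Ratings come from greenhouse-grown weeds in loam and sand treated pre- or postemergence (postemergence height 2 to 18 cm). Evaluation after 14–21 days, visual, relative to controls, on a 0–100 control scale.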
Assay [6] relates to morningglory (pitted morningglory, Ipomoea lacunosa). Kind of assay: Test D pre-/postemergence plant response. The method in brief: as §2
Assay [7] concerns quackgrass (Elytrigia repens). Kind of assay: Test D pre-/postemergence plant response. The method in brief:
as §2

Assay [8] concerns sandbur (southern sandbur, Cenchrus echinatus). The assay is described as follows: Test D pre-/postemergence plant response. The method in brief: as §2
Assay [9] deals with large crabgrass (Digitaria sanguinalis). The assay is described as follows: Test D pre-/postemergence plant response. An outline of the steps:
as §2

The test system of assay [10] is black mustard (Brassica nigra). Kind of assay: Test D pre-/postemergence plant response. An outline of the steps:
as §2

Assay [11] has as its system Italian ryegrass (Lolium multiflorum). The assay is described as follows: Test D pre-/postemergence plant response. The method in brief:
as §2

The subject of assay [12] is field bindweed (Convolvulus arvensis). The assay is described as follows: Test D pre-/postemergence plant response. The method in brief: as §2
The mark [13] stands for this setting: Postemergence, 31 g ai/ha, 0 to 100 scale (0 no effect, 100 complete control).
[14] abbreviates: Postemergence, 125 g ai/ha, scale 0 to 100 (0 no effect, 100 complete control).
The mark [15] stands for this setting: Postemergence, 250 g ai/ha, scale 0 to 100 (0 no effect, 100 complete control), 13 to 15 days.
[16] abbreviates: 31 g ai/ha, 0 to 100 scale (0 no effect, 100 complete control).
[17] abbreviates: 125 g ai/ha, scale 0 to 100 (0 no effect, 100 complete control).
Where [18] appears, read: 250 g ai/ha, scale 0 to 100 (0 no effect, 100 complete control), 13 to 15 days.
Where [19] appears, read: Postemergence, 62 g ai/ha, scale 0 to 100 (0 no effect, 100 complete control).
Setting [20] is: 62 g ai/ha, scale 0 to 100 (0 no effect, 100 complete control).
The mark [21] stands for this setting: Preemergence, 31 g ai/ha, scale 0 to 100 (0 no effect, 100 complete control).
Setting [22] is: Preemergence, 62 g ai/ha, scale 0 to 100 (0 no effect, 100 complete control).
Where [23] appears, read: Preemergence, 125 g ai/ha, scale 0 to 100, 0 no effect, 100 complete control.
Where [24] appears, read: 31 g ai/ha, scale 0 to 100 (0 no effect, 100 complete control).
The mark [25] stands for this setting: 125 g ai/ha, scale 0 to 100, 0 no effect, 100 complete control.
Where [26] appears, read: Postemergence, 31 g ai/ha, scale 0 to 100.
The mark [27] stands for this setting: Postemergence, 16 g ai/ha, scale 0 to 100.
Where [28] appears, read: Preemergence, 16 g ai/ha, scale 0 to 100, 0 no effect, 100 complete control.
[29] abbreviates: Preemergence, 62 g ai/ha, scale 0 to 100.
The mark [30] stands for this setting: Preemergence, 125 g ai/ha, scale 0 to 100.
Setting [31] is: Postemergence, 250 g ai/ha, scale 0 to 100 (0 no effect, 100 complete control).

Structures are written as SMILES.

Consider `O=C1CCCC(O)=C1C(=O)c1cnc(-c2cccs2)n(C2CCCCC2)c1=O` [Compound 189], for which the “Plant response rating, Galium” value in assay [1] (setting [13]) amounted to 20; in assay [1] (setting [14]), 85; in [1] (setting [15]), 85. Besides, the “Plant response rating, Deadnettle” value in assay [2] (setting [16]) is reported as 85; in assay [2] (setting [17]), 100; in assay [2] (setting [18]), 100.

Regarding `O=C1CCCC(O)=C1C(=O)c1cnc(-c2ccc(F)cc2)n(C2CCCCC2)c1=O` [Compound 197], the “Plant response rating, Galium” value is recorded as 75 in [1] (setting [13]), 75 in assay [1] (setting [19]) and 80 in assay [1] (setting [15]). The “Plant response rating, Deadnettle” value in assay [2] (setting [16]), in assay [2] (setting [20]), in assay [2] (setting [17]) and in assay [2] (setting [18]) was 100 each time.

`O=C1CCCC(O)=C1C(=O)c1cnc(-c2cccc(F)c2)n(C2CCCCC2)c1=O` [Compound 187]: the entries for the “Plant response rating, Galium” value in assay [1] (setting [13]), in [1] (setting [14]) and in [1] (setting [15]) were 20, 55 and 85, respectively. Also, the “Plant response rating, Deadnettle” value in [2] (setting [16]) came out at 80; in assay [2] (setting [18]) it was 100.

On to `CCCn1c(-c2cccc(Cl)c2)ncc(C(=O)C2=C(O)CCCC2=O)c1=O` [Compound 190], for which the “Plant response rating, Galium” value in [1] (setting [13]) is listed as 50; in [1] (setting [14]) it was 60; in assay [1] (setting [15]), 85. For the same compound, the “Plant response rating, Deadnettle” value in assay [2] (setting [16]) was found to be 65; in [2] (setting [17]) it was 100; in assay [2] (setting [18]), 100.

`O=C1CCCC(O)=C1C(=O)c1cnc(-c2ccccc2)n(CC2CCCO2)c1=O` (stereo not shown) [Compound 59]: the “Plant response rating, Galium” value is recorded as 98 in assay [1] (250 g ai/ha, Preemergence, 0 to 100 scale); 0 in assay [1] (setting [21]); 90 in assay [1] (setting [22]); 95 in assay [1] (setting [23]). Further, the “Plant response rating, Sunflower” value in assay [3] (setting [24]) came out at 55; in assay [3] (setting [20]) it was 65; in [3] (setting [25]), 70. The “Plant response rating, Nightshade” value in assay [4] (setting [24]) was determined as 95; in assay [4] (setting [20]) it was 98; in assay [4] (setting [25]), 100. In addition, the “Plant response rating, Prickly Sida” value in assay [5] (setting [26]) stood at 40; in [5] (setting [19]), 70; in [5] (setting [14]), 70; in assay [5] (setting [27]), 40; in assay [5] (setting [28]), 0; in assay [5] (setting [21]) it was 0. Further, the “Plant response rating, Prickly Sida” value stood at 5 in assay [5] (setting [29]) and 65 in assay [5] (setting [30]). Moreover, the “Plant response rating, Morningglory” value stood at 40 in assay [6] (setting [26]); 50 in assay [6] (setting [19]); 50 in assay [6] (setting [14]); 0 in assay [6] (setting [27]); 0 in assay [6] (setting [28]); 0 in assay [6] (setting [21]). Besides, the entries for the “Plant response rating, Morningglory” value in assay [6] (setting [29]) and in assay [6] (setting [30]) were 0 and 80, respectively. Besides, the “Plant response rating, Quackgrass” value in [7] (setting [26]), in [7] (setting [19]), in assay [7] (setting [14]), in [7] (setting [27]), in assay [7] (setting [28]) and in [7] (setting [21]) was 0 each time. Further, the “Plant response rating, Quackgrass” value in assay [7] (setting [30]) is on record as 0. For the same compound, the “Plant response rating, Sandbur” value in assay [8] (setting [26]) came out at 5; in assay [8] (setting [19]), 5; in [8] (setting [14]), 25; in [8] (setting [27]), 5; in assay [8] (setting [28]), 0; in assay [8] (setting [21]) it was 0. Further, the “Plant response rating, Sandbur” value in assay [8] (setting [30]) was 0. Further, the “Plant response rating, Crabgrass, Large” value is reported as 35 in [9] (setting [26]); 50 in assay [9] (setting [19]); 70 in assay [9] (setting [14]); 35 in assay [9] (setting [27]); 0 in assay [9] (setting [28]); 35 in assay [9] (setting [21]). Besides, the “Plant response rating, Crabgrass, Large” value in assay [9] (setting [29]) was 35; in assay [9] (setting [30]), 65. Also, the “Plant response rating, Black Mustard” value came out at 40 in assay [10] (Postemergence, 31 g ai/ha, scale 0 to 100 (0 no effect, 100 complete control)); 65 in assay [10] (setting [19]); 98 in [10] (setting [14]); 10 in assay [10] (setting [27]); 20 in [10] (setting [28]); 40 in assay [10] (setting [21]). In addition, the “Plant response rating, Black Mustard” value in assay [10] (setting [29]) is reported as 60; in assay [10] (setting [30]), 100. Further, the “Plant response rating, Ryegrass, Italian” value in assay [11] (setting [26]) is listed as 0; in assay [11] (setting [19]) it was 5; in assay [11] (setting [14]), 5; in assay [11] (setting [27]), 0; in assay [11] (setting [28]), 0; in assay [11] (setting [21]), 0. In assay [11] (setting [30]), the “Plant response rating, Ryegrass, Italian” value is on record as 20. Moreover, the “Plant response rating, Field Bindweed” value amounted to 5 in [12] (setting [26]); 30 in [12] (setting [19]); 60 in assay [12] (setting [14]); 5 in [12] (setting [27]); 0 in assay [12] (setting [28]); 0 in [12] (setting [21]). Further, the “Plant response rating, Field Bindweed” value is given as 20 in assay [12] (setting [29]) and 60 in [12] (setting [30]).

As to `CCCCn1c(-c2cc(F)cc(F)c2)ncc(C(=O)C2=C(O)C3CCC(C3)C2=O)c1=O` (stereo not shown) [Compound 245], the “Plant response rating, Galium” value in assay [1] (setting [21]) is recorded as 20; in assay [1] (setting [22]) it was 60; in assay [1] (setting [23]), 95. Moreover, the “Galium plant response rating” value in [1] (Preemergence, 250 g ai/ha, 0 to 100 scale) came to 95. The “Plant response rating, Sunflower” value in assay [3] (setting [24]) stood at 45; in assay [3] (setting [20]), 70; in assay [3] (setting [25]), 80. Also, the “Sunflower plant response rating” value in assay [3] (250 g ai/ha, 0 to 100 scale) was determined as 95. Further, the entries for the “Plant response rating, Nightshade” value in [4] (setting [24]), in assay [4] (setting [20]) and in assay [4] (setting [25]) were 98, 100 and 100, respectively. Besides, the “Nightshade plant response rating” value in assay [4] (250 g ai/ha, 0 to 100 scale) is 100. Moreover, the “Plant response rating, Prickly Sida” value in assay [5] (setting [26]) is listed as 30; in assay [5] (setting [19]) it was 50; in assay [5] (setting [14]) it was 50; in [5] (setting [31]), 70. The “Plant response rating, Morningglory” value was 70 in assay [6] (setting [26]), 75 in [6] (setting [19]), 80 in [6] (setting [14]) and 80 in [6] (setting [31]). The “Plant response rating, Quackgrass” value in assay [7] (setting [26]) stood at 20; in assay [7] (setting [19]) it was 35; in assay [7] (setting [14]), 40; in assay [7] (setting [31]), 65. The “Plant response rating, Sandbur” value in assay [8] (setting [26]) is on record as 65; in assay [8] (setting [19]) it was 70; in assay [8] (setting [14]) it was 75; in assay [8] (setting [31]), 75. Further, the “Plant response rating, Crabgrass, Large” value is reported as 70 in assay [9] (setting [26]), 70 in assay [9] (setting [19]), 75 in assay [9] (setting [14]) and 75 in assay [9] (setting [31]). Further, the “Plant response rating, Black Mustard” value was found to be 75 in assay [10] (setting [26]), 95 in assay [10] (setting [19]), 98 in assay [10] (setting [14]) and 98 in [10] (setting [31]). The “Plant response rating, Ryegrass, Italian” value in assay [11] (setting [26]) amounted to 5; in [11] (setting [19]) it was 5; in assay [11] (setting [14]) it was 20; in [11] (setting [31]), 50. Moreover, the “Plant response rating, Field Bindweed” value in assay [12] (setting [26]) was 50; in assay [12] (setting [19]) it was 50; in assay [12] (setting [14]), 60; in assay [12] (setting [31]), 70.

For the origin of these results see patent publication US8952024B2, “Herbicidal pyrimidone derivatives” (E I du Pont de Nemours and Company, priority 2009, dated 2015).
